The record followed here is patent US8956869B2, “Peptide inhibiting differentiation of hematopoietic stem cells or hematopoietic precursor cells and use of same” (Kyushu University, National University Corporation, priority 2009, dated 2015).

Where a SMILES comes first, the peptide text is derived from it. Where no end group is shown, it is not given here. The star is where a group is joined. Myristoyl = CCCCCCCCCCCCCC(=O)*

What all share (assay type): cell-based
The subject of data set [1] is mouse fetal liver hematopoietic stem cells (CD45(+)c-Kit(+)Sca-1 (+)). The data set can be described thus: Hematopoietic colony-forming cell assay. Conditions: for number of colonies: peptide 30 μg/mL, culturing for 12 days, 1,000 cells/dish. How it is done:
KS-13 (10 μg/mL or 30 μg/mL) was added to a semisolid medium (Methocult M3434 produced by STEMCELL Technologies) containing cell stimulatory factors (50 ng/mL of rm SCF, 10 ng/mL of rm IL-3, 10 ng/mL of rh IL-6, and 3 U/mL of rh EPO) (rm: recombinant form; rh: recombinant human form), and mouse fetal liver hematopoietic stem cells (CD45(+)c-Kit(+)Sca-1 (+)) (1,000 cells/dish) were cultured. Hematopoietic colony-forming cell assay was performed to evaluate the hematopoietic potential of the cells. Further, for comparison, hematopoietic colony-forming cell assay was performed in a similar manner using a KS-13-free liquid medium (none), and the hematopoietic potential of the cells was evaluated.
Myristoylated KS-13 (30 μg/mL) in which the N-terminal of KS-13 (SEQ ID NO: 1) is myristoylated and control peptide (NQVSIGCPCDGKK: SEQ ID NO: 22) (30 μg/mL) were added to a semisolid medium (Methocult M3434 produced by STEMCELL Technologies) containing cell stimulatory factors (50 ng/mL of rm SCF, 10 ng/mL of rm IL-3, 10 ng/mL of rh IL-6, and 3 U/mL of rh EPO) (rm: recombinant form; rh: recombinant human form) to culture mouse fetal liver hematopoietic stem cells (CD45(+)c— Kit(+)Sca-1(+)) (1,000 cells/dish) therein. Then, hematopoietic colony-forming cell assay was performed to evaluate the hematopoietic potential of the cells.

A short description of data set [2]: Confirmation of induction of cell death (PI staining, live cell ratio). Conditions: human, liquid-cultured 11 days. How it is done: (§1) (1-2) In order to confirm induction of cell death, cells that were liquid-cultured for 11 days in each experimental system were stained with PI, and the ratio of live cells was calculated based on the measured number of dead cells.
(§2) The live cell ratio {(the number of live cells/(the number of live cells+the number of dead cells)} was calculated for each experimental system (control, positive control, KS-13 (1 μg/mL), and KS-13 (10 μg/mL)), using cells that were liquid-cultured for 11 days as the target cells. The results are shown below.

Data set [3] concerns human cord blood CD34(+) hematopoietic stem cell population. The description is as above. Conditions: KS-13 1 and 10 μg/mL, 11 days. The procedure:
as §1, §2

As to “myristoylated KS-13: KS-13 (SEQ ID NO: 1) in which the N-terminal is myristoylated (Myristoyl-CQKKDGPCVINGS; cysteine pairing not given here; listed as Homo sapiens)”, the “colony formation versus control peptide” value in data set [1] (30 μg/mL, 12 days) is “inhibited colony formation more than the control”. In data set [1], this compound yielded a number of colonies of 93.9.
With “NQVSIGCPCDGKK (Control peptide) [reference compound]”, in data set [1], the number of colonies is recorded as 111.1.
Take `CC[C@H](C)[C@H](NC(=O)[C@@H](NC(=O)[C@H](CS)NC(=O)[C@@H]1CCCN1C(=O)CNC(=O)[C@H](CC(=O)O)NC(=O)[C@H](CCCCN)NC(=O)[C@H](CCCCN)NC(=O)[C@H](CCC(N)=O)NC(=O)[C@@H](N)CS)C(C)C)C(=O)N[C@@H](CC(N)=O)C(=O)NCC(=O)N[C@@H](CO)C(=O)O` [KS-13, Cys Gln Lys Lys Asp Gly Pro Cys Val Ile Asn Gly Ser] (H-CQKKDGPCVINGS-OH): in data set [2] (KS-13 1 μg/mL), the viability – broadly, a per cent measure of how many cells are alive, often set against a control – at 264 h, 1 µg/mL was found to be 97.5%. Further, in data set [2] (KS-13 10 μg/mL), the viability at 264 h, 10 µg/mL worked out at 97.6%. In addition, the “induction of cell death” value in data set [3] is reported as “does not induce cell death”.
